# Values joined by “and” are separate entries in the source; they are usually repeats but may differ in a detail not shown here. Equal values may be shown once. Read-outs that look alike come from different tables or passages of the source.
# What was measured:
# [1] = test system: AC-MES-induced tonic seizures in CF-1 mice; test: Mouse AC-MES assay (60 Hz, 40 mA, 0.2 s); format: in vivo; details: for EC50: Compound A PO 0.5 h alone
# Protocol: The efficacy of Compound A and its pharmacological interaction with Lacosamide was evaluated after oral dosing in the mouse maximal electroshock seizure (AC-MES) assay.
# The objective of these studies was to characterize the dose-dependent anticonvulsant activity of Compound A and its pharmacological interaction with Lacosamide in the AC-MES assay in mice after a single oral administration of the compounds. The AC-MES assay is typically responsive to non-selective sodium channel blockers and potassium channel openers, and has been used as a translational animal model for partial onset seizures.
# The anticonvulsant efficacy of Compound A and Lacosamide, and the effect of combining Compound A with Lacosamide were tested in the AC-MES assay in male CF-1 mice following a single PO dose. Plasma and brain samples were obtained to understand the relationship between drug concentration and efficacy.
# AC-MES Assay: The MES test has been extensively used in the search for anticonvulsant substances (Piredda et al., Löscher et al., and White et al.). The MES test is considered a model for generalized tonic-clonic (GTC) seizures and provides an indication of a compound's ability to prevent seizure spread. In the AC-MES model, an electroshock of alternating current (60 Hz, 40 mA) was delivered for 0.2 seconds by corneal electrodes (HSE-HA Rodent Shocker, Harvard Apparatus, model no: 73-0105). CF-1 mice were dosed PO (according to Standard Operating Procedure (SOP) TECH-006) with vehicle or Compound A 0.5 hours before the electroshock assay Immediately prior to the electroshock stimulation, the animals' eyes were anesthetized with a topical application of 0.5% Alcaine solution (proparacaine hydrochloride, one drop per eye). Mice were then restrained, the corneal electrodes applied, and the shock administered. In naïve animals, the seizure is characterized by an initial generalized tonic seizure with hindlimb tonic extensor component. An animal is considered protected from MES-induced seizures upon abolition of the hindlimb tonic extensor component of the seizure and is then scored “0”. […] Mice were euthanized immediately after an initial seizure score assessment following the electroshock for plasma and brain collection.
# Data Processing and Analysis: All statistics were calculated using GraphPad Prism version 8 software. Concentration response curves were generated using the Hill Langmuir equation:
# Y=B+(T−B)×x^n/(IC50^n+x^n), Equation 1
# where: • B=bottom, set as 0. • T=top, set as 1. • n=the Hill coefficient, constrained to less than zero. • IC50=concentration of a compound required for 50% inhibition in vitro.
# All group data is expressed as mean. Between-group differences were analyzed using Kruskal-Wallis followed by Dunn's multiple comparison test.
# Plasma and brain samples were obtained to understand the relationship between drug concentration and efficacy.
# (§1) The Blinding and Randomization, Clinical Observations, AC-MES Assay, Sample Collection and Preparation, Plasma and Brain Samples Analysis, and Bioanalysis Procedures in Example 4 were identical to those used in Example 2.
# Sample concentration determination and Data Processing and Analysis in Example 4 was identical to Example 2.
# [2] = test system: CF-1 mouse; test: Clinical observations / behavioral signs in AC-MES studies; format: in vivo
# Protocol: Any qualitative changes from normal behavior were recorded.
# Five oral (PO) doses of Compound A were each tested in the AC-MES model. Thirty minutes after administration of Compound A at 1 mg/kg (n=8), 3 mg/kg (n=8), 5 mg/kg (n=16), 7.5 mg/kg (n=7), and 10 mg/kg (n=17) via oral gavage to male CF-1 mice (body weights 28.2 to 43.8 g), the mice underwent a 60 Hz corneal electrical stimulus (0.2 seconds duration, 40 mA). This stimulus elicited a tonic hindlimb extension in all vehicle-dosed animals. […] An observational neurological assessment (qualitative test) was also conducted at the time of testing as a tolerability screen. Terminal plasma and brain samples were collected from all animals to obtain the levels of Compound A concentration, and to understand the relationship between efficacy and drug concentration.
# as §1
# [3] = Study 2A, Lacosamide 6 mg/kg PO, 2 h
# [4] = Study 2A, Lacosamide 8 mg/kg PO, 2 h
# [5] = Study 2B, Lacosamide 10 mg/kg PO, 2 h
# [6] = Study 2C, Lacosamide 10 mg/kg PO, 2 h, alone
# [7] = Study 2D, Lacosamide 6 mg/kg PO, 2 h
# [8] = Study 2D, Lacosamide 20 mg/kg PO, 2 h
# [9] = Study 2A, Compound A 1 mg/kg PO, 0.5 h
# [10] = Study 2A, Compound A 5 mg/kg PO, 0.5 h
# [11] = Study 2A, Compound A 10 mg/kg PO, 0.5 h
# [12] = Study 2B, Compound A 5 mg/kg PO, 0.5 h
# [13] = Study 2B, Compound A 7.5 mg/kg PO, 0.5 h
# [14] = Study 2B, Compound A 10 mg/kg PO, 0.5 h
# [15] = Study 2C, Compound A 3 mg/kg PO, 0.5 h, alone
# [16] = dosed in combination with Cenobamate vs alone
structure (smiles),measurement,setting,value
"NC(=O)O[C@@H](Cn1ncnn1)c1ccccc1Cl [Cenobamate, reference compound]",fraction of animals seizing,"[1]; Cenobamate 7.5 mg/kg PO, 2 h, alone",3/7
same,fraction of animals seizing,"[1]; Cenobamate 10 mg/kg PO, 2 h, alone",1/8
same,fraction of animals seizing,"[1]; Cenobamate 30 mg/kg PO, 2 h, alone",0/8
same,fraction of animals seizing,"[1]; Cenobamate lower doses of 3 and 5 mg/kg PO, 2 h, alone",7/8
same,Fraction Seizing,"[1]; Study 4D, Cenobamate 3 mg/kg single oral dose, 2 h pre-treatment, vehicle 8/8",8/8
same,Fraction Seizing,"[1]; Study 4D, Cenobamate 10 mg/kg single oral dose, 2 h pre-treatment, vehicle 8/8",1/8
same,Fraction Seizing,"[1]; Study 4D, Cenobamate 30 mg/kg single oral dose, vehicle 8/8",0/8
same,Fraction Seizing,"[1]; Study 4E, Cenobamate 3 mg/kg single oral dose, 2 h pre-treatment, vehicle 8/8",6/7
same,Fraction Seizing,"[1]; Study 4E, Cenobamate 5 mg/kg single oral dose, 2 h pre-treatment, vehicle 8/8",6/7
same,Fraction Seizing,"[1]; Study 4E, Cenobamate 7.5 mg/kg single oral dose, 2 h pre-treatment, vehicle 8/8",3/8
same,fraction of animals seizing,"[1]; Study 4F, Cenobamate 5 mg/kg PO, 2 h, alone",8/8
same,Fraction Seizing,"[1]; Study 4F, Cenobamate 5 mg/kg PO alone, 2 h pre-treatment, vehicle 8/8",8/8
same,Fraction with Behavioral Signs,"[2]; Study 4D, Cenobamate 3 mg/kg single oral dose",0/8
same,Fraction with Behavioral Signs,"[2]; Study 4D, Cenobamate 10 mg/kg single oral dose",0/8
same,Fraction with Behavioral Signs,"[2]; Study 4D, Cenobamate 30 mg/kg single oral dose",0/8
same,Fraction with Behavioral Signs,"[2]; Study 4E, Cenobamate 3 mg/kg single oral dose",0/8
same,Fraction with Behavioral Signs,"[2]; Study 4E, Cenobamate 5 mg/kg single oral dose",0/8
same,Fraction with Behavioral Signs,"[2]; Study 4E, Cenobamate 7.5 mg/kg single oral dose",0/8
same,Fraction with Behavioral Signs,"[2]; Study 4F, Cenobamate 5 mg/kg PO alone",0/8
"COC[C@@H](NC(C)=O)C(=O)NCc1ccccc1 [Lacosamide, reference compound]",Fraction Seizing,[1]; [3],8/8
same,Fraction Seizing,[1]; [4],8/8
same,Fraction Seizing,[1]; [5],8/8
same,Fraction Seizing,[1]; [6],6/8
same,Fraction Seizing,[1]; [7],8/8
same,Fraction Seizing,[1]; [8],3/8
same,Fraction with Behavioral Signs,[2]; [3],0/8
same,Fraction with Behavioral Signs,[2]; [4],0/8
same,Fraction with Behavioral Signs,[2]; [5],0/8
same,Fraction with Behavioral Signs,[2]; [6],0/8
same,Fraction with Behavioral Signs,[2]; [7],0/8
same,Fraction with Behavioral Signs,[2]; [8],0/8
"Cc1cc(N2CCc3cc(F)ccc3C2)cc(C)c1NC(=O)CC(C)(C)C [Compound A, N-[4-(6-fluoro-3,4-dihydro-1H-isoquinolin-2-yl)-2,6-dimethylphenyl]-3,3-dimethylbutanamide]",EC50,"[1]; composite of Studies 4A, 4B, 4C, 4F, read-out: EC50 for plasma",296 nM
same,EC50,"[1]; Mus musculus, po, 0.5 h, composite of Studies 2A, 2B, 2C, read-out: EC50 for brain tissue",471 nM
same,EC50,"[1]; Mus musculus, po, 0.5 h, composite of Studies 2A, 2B, 2C, read-out: EC50 for plasma",300 nM
same,EC50,"[1]; Mus musculus, po, 0.5 h, composite of Studies 4A, 4B, 4C, 4F, read-out: EC50 for brain tissue",470 nM
same,EC50,"[1]; Mus musculus, po, 0.5 h, composite of Studies 4A, 4B, 4C, 4F, read-out: EC50 for plasma",300 nM
same,Fraction Seizing,[1]; [9],8/8
same,Fraction Seizing,[1]; [10],7/8
same,Fraction Seizing,[1]; [11],3/8
same,Fraction Seizing,[1]; [12],0/8
same,Fraction Seizing,[1]; [13],0/7
same,Fraction Seizing,[1]; [14],1/9
same,Fraction Seizing,[1]; [15],2/8
same,fraction of animals seizing,"[1]; Study 4A, Compound A 1 mg/kg PO, 0.5 h",8/8
same,fraction of animals seizing,"[1]; Study 4A, Compound A 5 mg/kg PO, 0.5 h",7/8
same,fraction of animals seizing,"[1]; Study 4A, Compound A 10 mg/kg PO, 0.5 h",3/8
same,Fraction Seizing,"[1]; Study 4A, Compound A 1 mg/kg single oral dose, 30 min pre-treatment, vehicle 8/8",8/8
same,Fraction Seizing,"[1]; Study 4A, Compound A 5 mg/kg single oral dose, 30 min pre-treatment, vehicle 8/8",7/8
same,Fraction Seizing,"[1]; Study 4A, Compound A 10 mg/kg single oral dose, 30 min pre-treatment, vehicle 8/8",3/8
same,fraction of animals seizing,"[1]; Study 4B, Compound A 5 mg/kg PO, 0.5 h",0/8
same,fraction of animals seizing,"[1]; Study 4B, Compound A 10 mg/kg PO, 0.5 h",1/9
same,Fraction Seizing,"[1]; Study 4B, Compound A 5 mg/kg single oral dose, vehicle 8/8",0/8
same,Fraction Seizing,"[1]; Study 4B, Compound A 7.5 mg/kg single oral dose, vehicle 8/8",0/7
same,Fraction Seizing,"[1]; Study 4B, Compound A 10 mg/kg single oral dose, vehicle 8/8",1/9
same,fraction of animals seizing,"[1]; Study 4C, Compound A 3 mg/kg PO, 0.5 h",2/8
same,Fraction Seizing,"[1]; Study 4C, Compound A 3 mg/kg single oral dose, vehicle 8/8",2/8
same,fraction of animals seizing,"[1]; Study 4F, Compound A 2 mg/kg PO, 0.5 h, alone",5/8
same,Fraction Seizing,"[1]; Study 4F, Compound A 2 mg/kg PO alone, 0.5 h pre-treatment, vehicle 8/8",5/8
same,"increase in the potency of Compound A, brain tissue",[1]; [16],14.2 fold
same,"increase in the potency of Compound A, plasma",[1]; [16],33.3 fold
same,Fraction with Behavioral Signs,[2]; [9],0/8
same,Fraction with Behavioral Signs,[2]; [10],0/8
same,Fraction with Behavioral Signs,[2]; [11],1/8
same,"plasma concentration of individual mouse showing behavioral signs (tremors, decreased activity, splayed hindlimbs)","[2]; Study 2A, Compound A 10 mg/kg group, 10 mg/kg",390 nM
same,Fraction with Behavioral Signs,[2]; [12],0/8
same,Fraction with Behavioral Signs,[2]; [13],1/7
same,"plasma concentration of individual mouse showing behavioral signs (tremors, decreased activity, splayed hindlimbs)","[2]; Study 2B, Compound A 7.5 mg/kg group, 7.5 mg/kg",750 nM
same,Fraction with Behavioral Signs,[2]; [14],2/9
same,"plasma concentration of individual mouse showing behavioral signs (tremors, decreased activity, splayed hindlimbs)","[2]; Study 2B, Compound A 10 mg/kg group, two mice, 10 mg/kg",516 nM and 610 nM and 520 nM
same,Fraction with Behavioral Signs,[2]; [15],0/8
same,"plasma concentration of individual mouse showing behavioral signs (tremors, decreased activity, splayed hindlimbs)","[2]; Study 4A, Compound A 10 mg/kg group",390 nM
same,Behavioral Signs (fraction),"[2]; Study 4A, Compound A 1 mg/kg single oral dose",0/8
same,Behavioral Signs (fraction),"[2]; Study 4A, Compound A 5 mg/kg single oral dose",0/8
same,Behavioral Signs (fraction),"[2]; Study 4A, Compound A 10 mg/kg single oral dose",1/8
same,"plasma concentration of individual mouse showing behavioral signs (tremors, decreased activity, splayed hindlimbs)","[2]; Study 4B, Compound A 7.5 mg/kg group",750 nM
same,"plasma concentration of individual mouse showing behavioral signs (tremors, decreased activity, splayed hindlimbs)","[2]; Study 4B, Compound A 10 mg/kg group, two mice, 10 mg/kg",610 nM and 520 nM
same,Fraction with Behavioral Signs,"[2]; Study 4B, Compound A 5 mg/kg single oral dose",0/8
same,Fraction with Behavioral Signs,"[2]; Study 4B, Compound A 7.5 mg/kg single oral dose",1/7
same,Fraction with Behavioral Signs,"[2]; Study 4B, Compound A 10 mg/kg single oral dose",2/9
same,Fraction with Behavioral Signs,"[2]; Study 4C, Compound A 3 mg/kg single oral dose",0/8
same,Fraction with Behavioral Signs,"[2]; Study 4F, Compound A 2 mg/kg PO alone",0/8
